The assay has as its system EAE relapse (remitting-relapsing MS model). The assay is described as follows: EAE relapse study (PLP139-151/CFA), therapeutic treatment. Format: in vivo. The conditions noted are these: groups of 15; treatment from enrolment to Day 39; vehicle group 8 mice; FTY-720 3 mg/kg p.o. QD, RHB-104 p.o. BID. An excerpt:
Disease was induced by immunizing mice on Day 0 with PLP139-151 peptide emulsified in complete Freund's adjuvant (CFA).
To assess disease development, mice were weighed three times per week (Monday, Wednesday and Friday) from the time of immunization and scored daily for clinical signs of EAE starting on Day 9.
Enrollment of mice into groups occurred on the second day of clinical signs of EAE for each mouse. Mice were enrolled into treatment groups as they develop signs of EAE (rolling enrolment).
45 mice were enrolled into 3 groups of 15 and the treatment started on the day of enrolment. Assignment was balanced to achieve similar scores between the groups at enrolment.
Group 1—Vehicle (PBS), p.o., BID, 5 mL/kg (negative control)
Group 2—treated with FTY-720 (Fingolimod, Gilenya) 3 mg/kg, p.o., QD (a drug used for treatment of MS and used as a positive control)
Group 3—treated with RHB-104, p.o., BID, 5 mL/kg
Treatment started on the day of enrolment and continued until Day 39.
All dosing was performed at the same time (+/−1 hour) each day. […]
Mice were scored daily from Day 9 to Day 40, and body weight was measured three times/week (Monday, Wednesday and Friday), starting before immunization (Day −1). […]
Readouts were EAE scores on the scale 0-5 in 0.5 unit increments, and changes in body weight.
EAE was scored on scale 0 to 5 as described above.

Turning to `CCCCCCCCc1ccc(CCC(N)(CO)CO)cc1` [FTY-720, Fingolimod], the “Number of mice showing relapse” value was determined as 2 mice.

(Values after patent publication US9901638B2, “Composition and method for treating an autoimmune disease” (RedHill Biopharma Ltd., priority 2011, dated 2018).)
